Tests used:
[1] = system: maternal HIV+ sera (antibodies); assay: RIA / ELISA binding of maternal HIV+ sera to gp120 and gp41 peptides (Example 3); design: species or system human
Summary of the method: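 Peptides were coated at 10 μg/ml in carbonate buffer pH 9.6 and blocked with 1% BSA. Sera at 1:50 and 1:500 were incubated overnight at 4°C and detected with ¹²⁵I anti-human IgG (RIA) or HRP/TMB at OD450 (ELISA). Specific binding was taken as peptide minus no-peptide wells, scored as a ratio to normal human serum.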

[2] = system: maternal sera (antibodies); assay: ELISA peptide-binding of maternal sera (Example 6); design: species or system human; conditions: for Number of Non-Transmitters which bound to peptide / Percent of Non-Transmitters which bound to peptide: N = 12; for Number of Transmitters which bound to peptide / Percent of Transmitters which bound to peptide: N = 4
Summary of the method: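 Third-trimester maternal sera, from HIV-1 transmitting and non-transmitting mothers, were tested by ELISA against ~16-residue peptides spanning HIV-1 external and transmembrane glycoproteins. Each serum was run with at least 40 peptides, and values are the percentage of sera binding each peptide.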

[3] = Serum No. 1, Non-Transmission Group
[4] = Serum No. 2, Non-Transmission Group
[5] = Serum No. 3, Non-Transmission Group
[6] = Serum No. 4, Transmission Group
[7] = Serum No. 5, Transmission Group
[8] = Serum No. 6, Non-Transmission Group
[9] = Serum No. 7, Non-Transmission Group
[10] = Serum No. 8, Non-Transmission Group
[11] = Serum No. 9, Non-Transmission Group
[12] = Serum No. 10, Transmission Group
[13] = Serum No. 11, Non-Transmission Group
[14] = Serum No. 12, Non-Transmission Group
[15] = Serum No. 13, Transmission Group
[16] = Serum No. 14, Transmission Group
[17] = Serum No. 15, Transmission Group
[18] = Serum No. 16, Non-Transmission Group
[19] = Serum No. 17, Non-Transmission Group
[20] = Serum No. 18, Non-Transmission Group
[21] = Serum No. 19, Transmission Group
[22] = Serum No. 20, Non-Transmission Group

Sequence	Binding of maternal HIV+ serum to peptide (sera/NHS ratio) [1, 3]	Binding of maternal HIV+ serum to peptide (sera/NHS ratio) [1, 4]	Binding of maternal HIV+ serum to peptide (sera/NHS ratio) [1, 5]	Binding of maternal HIV+ serum to peptide (sera/NHS ratio) [1, 6]	Binding of maternal HIV+ serum to peptide (sera/NHS ratio) [1, 7]	Binding of maternal HIV+ serum to peptide (sera/NHS ratio) [1, 8]	Binding of maternal HIV+ serum to peptide (sera/NHS ratio) [1, 9]	Binding of maternal HIV+ serum to peptide (sera/NHS ratio) [1, 10]	Binding of maternal HIV+ serum to peptide (sera/NHS ratio) [1, 11]	Binding of maternal HIV+ serum to peptide (sera/NHS ratio) [1, 12]	Binding of maternal HIV+ serum to peptide (sera/NHS ratio) [1, 13]	Binding of maternal HIV+ serum to peptide (sera/NHS ratio) [1, 14]	Binding of maternal HIV+ serum to peptide (sera/NHS ratio) [1, 15]	Binding of maternal HIV+ serum to peptide (sera/NHS ratio) [1, 16]	Binding of maternal HIV+ serum to peptide (sera/NHS ratio) [1, 17]	Binding of maternal HIV+ serum to peptide (sera/NHS ratio) [1, 18]	Binding of maternal HIV+ serum to peptide (sera/NHS ratio) [1, 19]	Binding of maternal HIV+ serum to peptide (sera/NHS ratio) [1, 20]	Binding of maternal HIV+ serum to peptide (sera/NHS ratio) [1, 21]	Binding of maternal HIV+ serum to peptide (sera/NHS ratio) [1, 22]	also measured
QNNLLRAIEAQQHLLQLTVWGI [Peptide 35]	- (specific OD450 or cpm of sera sample binding to peptide divided by the specific OD450 or cpm of NHS sample binding to peptide, which value is less than 2)	- (specific OD450 or cpm of sera sample binding to peptide divided by the specific OD450 or cpm of NHS sample binding to peptide, which value is less than 2)	+ (which value is between 2 to 3)	- (specific OD450 or cpm of sera sample binding to peptide divided by the specific OD450 or cpm of NHS sample binding to peptide, which value is less than 2)	- (specific OD450 or cpm of sera sample binding to peptide divided by the specific OD450 or cpm of NHS sample binding to peptide, which value is less than 2)	- (specific OD450 or cpm of sera sample binding to peptide divided by the specific OD450 or cpm of NHS sample binding to peptide, which value is less than 2)	+ (which value is between 2 to 3)	- (specific OD450 or cpm of sera sample binding to peptide divided by the specific OD450 or cpm of NHS sample binding to peptide, which value is less than 2)	- (specific OD450 or cpm of sera sample binding to peptide divided by the specific OD450 or cpm of NHS sample binding to peptide, which value is less than 2)	- (specific OD450 or cpm of sera sample binding to peptide divided by the specific OD450 or cpm of NHS sample binding to peptide, which value is less than 2)	- (specific OD450 or cpm of sera sample binding to peptide divided by the specific OD450 or cpm of NHS sample binding to peptide, which value is less than 2)	- (specific OD450 or cpm of sera sample binding to peptide divided by the specific OD450 or cpm of NHS sample binding to peptide, which value is less than 2)	- (specific OD450 or cpm of sera sample binding to peptide divided by the specific OD450 or cpm of NHS sample binding to peptide, which value is less than 2)	- (specific OD450 or cpm of sera sample binding to peptide divided by the specific OD450 or cpm of NHS sample binding to peptide, which value is less than 2)	- (specific OD450 or cpm of sera sample binding to peptide divided by the specific OD450 or cpm of NHS sample binding to peptide, which value is less than 2)	- (specific OD450 or cpm of sera sample binding to peptide divided by the specific OD450 or cpm of NHS sample binding to peptide, which value is less than 2)	- (specific OD450 or cpm of sera sample binding to peptide divided by the specific OD450 or cpm of NHS sample binding to peptide, which value is less than 2)	- (specific OD450 or cpm of sera sample binding to peptide divided by the specific OD450 or cpm of NHS sample binding to peptide, which value is less than 2)	- (specific OD450 or cpm of sera sample binding to peptide divided by the specific OD450 or cpm of NHS sample binding to peptide, which value is less than 2)	- (specific OD450 or cpm of sera sample binding to peptide divided by the specific OD450 or cpm of NHS sample binding to peptide, which value is less than 2)	Number of Non-Transmitters which bound to peptide [2]: 0; Percent of Non-Transmitters which bound to peptide [2]: 0%; Number of Transmitters which bound to peptide [2]: 0; Percent of Transmitters which bound to peptide [2]: 0%
SSGRMIMEKGEIKNCSFNIST [Peptide 59]	- (specific OD450 or cpm of sera sample binding to peptide divided by the specific OD450 or cpm of NHS sample binding to peptide, which value is less than 2)	- (specific OD450 or cpm of sera sample binding to peptide divided by the specific OD450 or cpm of NHS sample binding to peptide, which value is less than 2)	- (specific OD450 or cpm of sera sample binding to peptide divided by the specific OD450 or cpm of NHS sample binding to peptide, which value is less than 2)	- (specific OD450 or cpm of sera sample binding to peptide divided by the specific OD450 or cpm of NHS sample binding to peptide, which value is less than 2)	- (specific OD450 or cpm of sera sample binding to peptide divided by the specific OD450 or cpm of NHS sample binding to peptide, which value is less than 2)	- (specific OD450 or cpm of sera sample binding to peptide divided by the specific OD450 or cpm of NHS sample binding to peptide, which value is less than 2)	- (specific OD450 or cpm of sera sample binding to peptide divided by the specific OD450 or cpm of NHS sample binding to peptide, which value is less than 2)	- (specific OD450 or cpm of sera sample binding to peptide divided by the specific OD450 or cpm of NHS sample binding to peptide, which value is less than 2)	- (specific OD450 or cpm of sera sample binding to peptide divided by the specific OD450 or cpm of NHS sample binding to peptide, which value is less than 2)	- (specific OD450 or cpm of sera sample binding to peptide divided by the specific OD450 or cpm of NHS sample binding to peptide, which value is less than 2)	- (specific OD450 or cpm of sera sample binding to peptide divided by the specific OD450 or cpm of NHS sample binding to peptide, which value is less than 2)	- (specific OD450 or cpm of sera sample binding to peptide divided by the specific OD450 or cpm of NHS sample binding to peptide, which value is less than 2)	- (specific OD450 or cpm of sera sample binding to peptide divided by the specific OD450 or cpm of NHS sample binding to peptide, which value is less than 2)	- (specific OD450 or cpm of sera sample binding to peptide divided by the specific OD450 or cpm of NHS sample binding to peptide, which value is less than 2)	- (specific OD450 or cpm of sera sample binding to peptide divided by the specific OD450 or cpm of NHS sample binding to peptide, which value is less than 2)	- (specific OD450 or cpm of sera sample binding to peptide divided by the specific OD450 or cpm of NHS sample binding to peptide, which value is less than 2)	- (specific OD450 or cpm of sera sample binding to peptide divided by the specific OD450 or cpm of NHS sample binding to peptide, which value is less than 2)	- (specific OD450 or cpm of sera sample binding to peptide divided by the specific OD450 or cpm of NHS sample binding to peptide, which value is less than 2)	- (specific OD450 or cpm of sera sample binding to peptide divided by the specific OD450 or cpm of NHS sample binding to peptide, which value is less than 2)	- (specific OD450 or cpm of sera sample binding to peptide divided by the specific OD450 or cpm of NHS sample binding to peptide, which value is less than 2)	Binding of maternal sera to peptide (in words) ([1]; Example 3): No binding; Number of Non-Transmitters which bound to peptide [2]: 0; Percent of Non-Transmitters which bound to peptide [2]: 0%; Number of Transmitters which bound to peptide [2]: 0; Percent of Transmitters which bound to peptide [2]: 0%

From patent publication US5556744A, “Methods and compositions for diagnosing and treating certain HIV infected patients” (The Trustees of the University of Pennsylvania, priority 1994, dated 1996)
